“And” between values parts separate entries of the source, which are not always exact repeats. Equal values may be shown once. Read-outs that look alike come from different tables or passages of the source.
Tests used:
full-length Akt = biological target: T1, full-length Akt (Homo sapiens, UniProt P31749); test: Microscale thermophoresis; type: binding
T1 construct: purchased Millipore
Description: (§1) Using 0.1 M Tris-HCl buffer (pH 7.2) containing 0.05% Tween-20, a 1:1 serial dilution was prepared for G7 to yield 16 working solutions, with the highest concentration being 200 µM. Each of these G7 solutions was mixed with 1 µM of purified Akt sample prepared in the same 0.05% Tween-20 Tris-HCl buffer. […] After 15-min incubation the samples were centrifuged at 14,000 g at 4 °C before loading into premium coated capillaries (NanoTemper Tech.) for MST measurements. The MST experiments was conducted on a Monolith NT.LabelFree instrument (NanoTemper Tech.), at 20% LED power and 40% MST power. Data analyses were performed using the NanoTemper analysis software.

Akt PH domain = biological target: T2, Akt PH domain (Homo sapiens, UniProt P31749); test: Microscale thermophoresis; type: binding; details: recombinant Akt PH domain
T2 construct: The Akt samples tested include recombinant Akt PH domain; purchased Millipore
T2 sequence (P31749 5-108 limits assumed): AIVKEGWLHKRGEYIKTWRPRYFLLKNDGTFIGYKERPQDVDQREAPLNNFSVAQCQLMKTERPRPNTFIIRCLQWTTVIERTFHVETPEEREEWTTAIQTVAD
Description: as §1

SIK2 = test: KINOMEscan; details: 50000 nM
Description: KINOMEscan™ selectivity screen
(§2) Briefly, Kinase-tagged T7 phage strains were grown in parallel in an E. coli host derived from the BL21 strain. E. coli were grown to log-phase and infected with T7 phage from a frozen stock and incubated with shaking at 32°C until lysis (90-150 minutes). The kinases were produced in HEK-293 cells and subsequently tagged with DNA for qPCR detection. Streptavidin-coated magnetic beads were treated with biotinylated small molecule ligands to generate affinity resins for kinase
(§3) inhibitor or DMSO control was performed in polypropylene 384-well plates for 1 hr at room temperature. After wash with PBS buffer containing 0.05% Tween 20, the beads were incubated in elution buffer (PBS containing 0.05 % Tween 20 and 0.5 μM non-biotinylated affinity ligand) for 30 minutes at room temperature. The kinase concentration in the eluates was measured by qPCR.

[1] = test system: EGFR(L747-S752del, P753S); test: KINOMEscan; details: 50000 nM
Description: as §2, §3

CDK9 = test: KINOMEscan; details: 50000 nM
Description: KINOMEscan™ selectivity screen
as §2, §3

RIPK4 = test: KINOMEscan; details: 50000 nM
Description: KINOMEscan™ selectivity screen
(§4) The assay was perfor med at DiscoveRx Corporation according the methods published previously5. Briefly, Kinase-tagged T7 phage strains were grown in parallel in an E. coli host derived from the BL21 strain. E. coli were grown to log-phase and infected with T7 phage from a frozen stock and incubated with shaking at 32°C until lysis (90-150 minutes). The kinases were produced in HEK-293 cells and subsequently tagged with DNA for qPCR detection. Streptavidin-coated magnetic beads were treated with biotinylated small molecule ligands to generate affinity resins for kinase
as §3

Akt-PIP3 association = test system: T3, Akt-PIP3 association; test: PIP3-Akt pull-down assay; type: binding; details: inactive Akt, PIP3 beads
T3 construct: purchased Millipore 14-279
Description: according to the method reported previously6. Briefly, the lipids dissolved in methanol/chloroform were mixed at desired proportions and dried with a N2 steam.
The lipid mixture was redissolved in 2 mL cyclohexane containing 75 μM BHT (2,6-di-tert-butyl-p-cresol) and lyophilized under vacuum. Unilamellar vesicles were obtained by reconstituting the dried sample with 1 mL of PBS (pH 7.4) containing 50 μM DTPA (diethylenetriamine pentaacetic acid) followed by extrusion with 0.1 μm polycarbonate membrane (Corning, Inc.). For in vitro phosphorylation of Akt, 1 μL […]
mixture was resolved on SDS gel followed by western blot analysis.
The assay was performed using a protocol published previously7.
(50 ng) in PBS containing 400 ng/mL BSA was incubated with inhibitor G7 or a PI analog (EMD Millipore, #124005) for 2 hr at 4 °C. 25 µL PIP3 beads (Echelon, #P-B345a) was added to the sample and incubated overnight at 4 °C. The beads were washed with washing buffer containing 10 mM HEPES (pH 7.5), 0.25% NP-40 and 150 mM NaCl. Akt was eluted with 2x LDS and measured by immunoblotting.
Chemical cross-linking and mass spectrometry

GCN2(Kin.Dom.2,S808G) = test: KINOMEscan; details: 50000 nM
Description: KINOMEscan™ selectivity screen
as §4, §3

EPHA8 = test: KINOMEscan; details: 50000 nM
Description: KINOMEscan™ selectivity screen
as §4, §3

AURKA = test: KINOMEscan; details: 50000 nM
Description: KINOMEscan™ selectivity screen
as §4, §3

[2] = test system: ABL1(T315I)-phosphorylated; test: KINOMEscan; details: 50000 nM
Description: KINOMEscan™ selectivity screen
as §4, §3

ARK5 = test: KINOMEscan; details: 50000 nM
Description: KINOMEscan™ selectivity screen
as §2, §3

HIPK2 = test: KINOMEscan; details: 50000 nM
Description: KINOMEscan™ selectivity screen
as §4, §3

ULK2 = test: KINOMEscan; details: 50000 nM
Description: KINOMEscan™ selectivity screen
as §4, §3

SNRK = test: KINOMEscan; details: 50000 nM
Description: KINOMEscan™ selectivity screen
The assay was perfor med at DiscoveRx Corporation according the methods published previously5. […] The kinases were produced in HEK-293 cells and subsequently tagged with DNA for qPCR detection. Streptavidin-coated magnetic beads were treated with biotinylated small molecule ligands to generate affinity resins for kinase
as §3

MARK3 = test: KINOMEscan; details: 50000 nM
Description: KINOMEscan™ selectivity screen
as §4, §3

SRC = test: KINOMEscan; details: 50000 nM
Description: KINOMEscan™ selectivity screen
as §4, §3

Akt = biological target: T4, Akt (Mus musculus, UniProt P31750); test: Akt activity assay (immunoprecipitated Akt, K-Lisa); type: cell-based
T4 construct: subjected to immunoprecipitation using protein G-plus and anti-AKT PH domain (Millipore); endogenous in cells; host or cells: Neuro 2A (mouse neuroblastoma), IGF-stimulated
T4 sequence (P31750 whole entry, the tested form may be a part): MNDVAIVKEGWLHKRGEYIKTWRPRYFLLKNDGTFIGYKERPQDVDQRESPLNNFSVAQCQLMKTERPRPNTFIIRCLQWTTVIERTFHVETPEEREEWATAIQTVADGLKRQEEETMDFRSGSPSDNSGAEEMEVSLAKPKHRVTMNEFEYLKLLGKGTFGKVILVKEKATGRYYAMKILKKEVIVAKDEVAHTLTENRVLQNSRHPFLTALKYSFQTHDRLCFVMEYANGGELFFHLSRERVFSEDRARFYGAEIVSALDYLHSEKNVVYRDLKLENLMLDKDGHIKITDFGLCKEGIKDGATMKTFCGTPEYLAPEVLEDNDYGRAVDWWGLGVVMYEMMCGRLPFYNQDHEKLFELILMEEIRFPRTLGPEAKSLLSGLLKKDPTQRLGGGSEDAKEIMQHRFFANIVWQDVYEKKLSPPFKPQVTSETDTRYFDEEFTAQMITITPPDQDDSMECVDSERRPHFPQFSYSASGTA
Description: After overnight starvation by incubating with serum-free DMEM, Neuro 2A cells were treated with compound G7 at various concentrations for 30 min at room temperature followed by stimulation with IGF (final concentration of 100 ng/mL) for 30 min. Cells were lysed with lysis buffer containing 1% Triton X-100 and protease/phosphatase inhibitors (Cell Signaling Technology) and subjected to immunoprecipitation using protein G-plus and anti-AKT PH domain (Millipore). The activity of the immunopurified Akt was evaluated using a K-Lisa Akt activity kit (Millipore) in accordance with manufacturer’s instructions. The activity was normalized to Akt level in the immunoprecipitates determined by quantitative western blot analysis.

BRSK2 = test: KINOMEscan; details: 50000 nM
Description: KINOMEscan™ selectivity screen
as §4, §3

BMPR2 = test: KINOMEscan; details: 50000 nM
Description: KINOMEscan™ selectivity screen
as §4, §3

CSF1R-autoinhibited = test: KINOMEscan; details: 50000 nM
Description: KINOMEscan™ selectivity screen
as §4, §3

MAP3K1 = test: KINOMEscan; details: 50000 nM
Description: KINOMEscan™ selectivity screen
as §2, §3

STK39 = test: KINOMEscan; details: 50000 nM
Description: KINOMEscan™ selectivity screen
as §4, §3

T1 sequence (P31749 whole entry): as the sequence (P31750 whole entry, the tested form may be a part) above, with N2S, S50A, A100T, R112K, T117E, T389K, N410G, D415H counted along it

## Oc1cc(-c2ccccc2)c2ccccc2n1 [G7, 4-phenylquinolin-2(1H)-one]
full-length Akt; active Akt, read-out: Kd
  Kd: 6.3 ± 2.9 µM
full-length Akt; full-length Akt regardless of the activation status, read-out: Kd values
  Kd: 4 to 6 µM
full-length Akt; inactive Akt, read-out: Kd
  Kd: 3.7 ± 1 µM
Akt PH domain
  Kd: 8 µM
SIK2
  Percent Control: 78%
[1]
  Percent Control: 84%
CDK9
  Percent Control: 99%
RIPK4
  Percent Control: 80%
Akt-PIP3 association
  effect on the Akt-PIP3 association: insignificant effect
GCN2(Kin.Dom.2,S808G)
  Percent Control: 99%
EPHA8
  Percent Control: 93%
AURKA
  Percent Control: 50%
[2]
  Percent Control: 64%
ARK5
  Percent Control: 59%
HIPK2
  Percent Control: 63%
ULK2
  Percent Control: 76%
SNRK
  Percent Control: 84%
MARK3
  Percent Control: 87%
SRC
  Percent Control: 65%
Akt; G7 at 50 µM
  decrease of Akt activity: ~ 80%
Akt; IGF-stimulated Neuro 2A cells, Akt immunoprecipitated, read-out: IC50 on Akt enzymatic activity
  IC50: 6 µM and 6.2 µM
BRSK2
  Percent Control: 82%
BMPR2
  Percent Control: 82%
CSF1R-autoinhibited
  Percent Control: 16%
MAP3K1
  Percent Control: 71%
STK39
  Percent Control: 85%
